Measurements reported in patent US20250032443A1, “TREATMENT OF MYOTONIC DISORDERS” (University of Rochester, priority 2021, published 2025).

Experiments:
[1] = test system: Cav1.1^Δe29/ClC-1^−/− mice; assay: Body weight measurements in Cav1.1^Δe29/ClC-1^−/− mice; assay type: in vivo, mouse
Description: Mice were provided food cups immediately after weaning, and food was changed daily. No other food source was given, but water was provided and changed weekly along with cages.
Body weight of the mice was measured every other day following weaning to the end of terminal experimentation. For statistical analysis, two-way ANOVA was performed on the average of each week's measurements. Percent body weight change at 10 weeks was determined with the first weight measurement taken post-weaning, and the body weight reached at 10 weeks.

[2] = test system: Cav1.1^Δe29/ClC-1^−/− mice; assay: Time of righting reflex in Cav1.1^Δe29/ClC-1^−/− mice; assay type: in vivo, mouse
Description: Mice were held in a supine position on a level surface and then released. Two persons began timing immediately after release, and timing was stopped once all four paws were down on the surface. This was repeated for a total of 10 timed righting responses with a minimum of five minutes in between each recording to avoid myotonic warm-up. Recordings less than a second were recorded as “1,” and righting was considered a failure if righting took more than 60 seconds. If failure was reached, no further recordings were measured for that mouse for that week. The two longest and two shortest recording for each mouse was removed, and the average of the middle 6 recordings were used for analysis. Two-way ANOVA on the week-to-week results and one-way ANOAV with multiple comparisons for the timepoint data (10-week and 20-week) were performed.

[3] = test system: Cav1.1^Δe29/ClC-1^−/− mice; assay: Whole body plethysmography in Cav1.1^Δe29/ClC-1^−/− mice; assay type: in vivo, mouse
Description: Whole body plethysmography (Buxco® Small Animal Whole Body Plethysmography, Data Science Internation) was used to measure respiratory function at 10 weeks (all groups) and 20 weeks (excluding untreated Cav1.1^Δe29/ClC-1^−/−). Mice were acclimated to the system for two days, with data being collected on day three. […] Average data from the 10-minute acquisition period for frequency (Breath/min) and tidal volume (mL) were analyzed for statistics by one-way ANOVA with multiple comparisons.

[4] = test system: EDL muscle of Cav1.1^Δe29/ClC-1^−/− mice; assay: In vitro muscle contraction of EDL isolated from long-term orally treated mice (no drug in bath); assay type: in vivo, mouse; conditions: 20-weeks-of-age, amlodipine treatment
[5] = test system: diaphragm strip of Cav1.1^Δe29/ClC-1^−/− mice; assay: In vitro muscle contraction of diaphragm strips isolated from long-term orally treated mice (no drug in bath); assay type: in vivo, mouse
myotonic WT EDL = assay: Myotonia, ex vivo EDL incubated with 9-AC; design: species or system mouse
myotonic Cav1.1^Δe29 EDL = assay: Myotonia, ex vivo EDL incubated with 9-AC; design: species or system mouse
[6] = test system: WT and Cav1.1^Δe29 EDLs (no 9AC); assay: Myotonia protocol, ex vivo EDL without 9-AC; design: species or system mouse; conditions: 10 mM amlodipine in the bath
[7] = test system: Cav1.1^Δe29+9-AC EDL muscle; assay: Transient weakness, ex vivo EDL made myotonic with 9-AC; design: initial force generation drop: dose or concentration left out as unconfirmed; conditions: for transient weakness: 20-wk mice
[8] = test system: non-myotonic and myotonic WT and Cav1.1^Δe29 mouse muscle; assay: Peak contraction force of non-myotonic and myotonic ex vivo EDL, drug in bath; conditions: 5 mM and 20 mM verapamil in bath, with or without 100 mM 9-AC; 20-wk mice
WT+9-AC EDL muscle = assay: Transient weakness, ex vivo EDL made myotonic with 9-AC; conditions: in bath, 20-wk mice
[9] = 5 mg/kg/day amlodipine vs untreated
[10] = 20-weeks of age, amlodipine treated vs WT

Question: With `CCOC(=O)C1=C(COCCN)NC(C)=C(C(=O)OC)C1c1ccccc1Cl` (racemic) [amlodipine, (RS)-3-ethyl 5-methyl 2-[(2-aminoethoxy)methyl]-4-(2-chlorophenyl)-6-methyl-1,4-dihydropyridine-3,5-dicarboxylate] as the compound, how does the “percent body weight change compared to WT” value ([1]; 5 mg/kg/day amlodipine vs WT) read?
Answer: not significantly different

Question: What about the “percent body weight change from weaning at 10 weeks” value [1, 9] of the same compound?
Answer: significant improvement

Question: And the “time of righting reflex, week-to-week, compared to ClC-1^−/− alone mice” value ([2]; 5 mg/kg/day amlodipine)?
Answer: no significant difference in righting

Question: And the “average time of righting reflex compared to WT mice” value ([2]; 5 mg/kg/day amlodipine vs WT)?
Answer: not a significant difference in time of righting

Question: And the “average time of righting reflex at 10- and 20-week of age” value [2, 9]?
Answer: significantly improve time of righting

Question: And the “time of righting reflex, weekly” value [2, 9]?
Answer: significantly improves time of righting

Question: What about the minute ventilation ([3]; 10-week, amlodipine treated vs untreated) of the same compound?
Answer: not improved

Question: And the frequency of respiration ([3]; 10-weeks, 5 mg/kg/day amlodipine)?
Answer: reduction in the frequency

Question: What about the “frequency of respiration compared to WT” value [3, 10] of the same compound?
Answer: not significantly different

Question: And the “minute ventilation compared to WT” value [3, 10]?
Answer: significant reduction

Question: And the respiratory function overall ([3]; amlodipine treatment)?
Answer: moderately impacted

Question: And the “muscle function and muscle force generation in EDL” value [4]?
Answer: not a significant impact

Question: And the “muscle function and muscle force generation in diaphragm” value ([5]; 20-weeks-of-age, amlodipine treatment)?
Answer: not a significant impact

Question: And the “diaphragm force reduction at 150 Hz and in frequency dependence protocol, compared to ClC-1^−/− alone mice” value ([5]; 20-wk, amlodipine treated)?
Answer: comparable

Question: And the “diaphragm strip force generation compared to WT diaphragm” value ([5]; 20-wk, amlodipine treated vs WT)?
Answer: force generation reduction

Question: And the myotonia (myotonic WT EDL; 10 mM amlodipine)?
Answer: reduced myotonia

Question: And the myotonia (myotonic Cav1.1^Δe29 EDL; 10 mM amlodipine)?
Answer: reduction in the myotonia

Question: And the “myotonia, difference between WT and Cav1.1^Δe29, first tetanus” value (myotonic Cav1.1^Δe29 EDL; 10 mM amlodipine)?
Answer: significant difference

Question: And the “myotonia, difference between WT and Cav1.1^Δe29, following tetani” value (myotonic Cav1.1^Δe29 EDL; 10 mM amlodipine, 100 mM 9-AC)?
Answer: no difference

Question: And the “myotonia (integration normalized to specific force) without 9AC” value [6]?
Answer: has no affect

Question: What about the “initial force generation drop” value ([7]; 10 mm amlodipine in the bath) of the same compound?
Answer: improved

Question: What about the transient weakness ([7]; 10 mm amlodipine in the bath) of the same compound?
Answer: improvement to transient weakness

Question: With `COc1ccc(CCN(C)CCCC(C#N)(c2ccc(OC)c(OC)c2)C(C)C)cc1OC` (racemic) [verapamil, (RS)-2-(3,4-Dimethoxyphenyl)-5-{[2-(3,4-dimethoxyphenyl)ethyl]-(methyl)amino}-2-prop-2-ylpentanenitrile] as the compound, how does the peak contraction force [8] read?
Answer: does not reduce peak contraction force

Question: And the transient weakness (WT+9-AC EDL muscle; 5 mM verapamil)?
Answer: improve transient weakness

Question: What about the transient weakness (WT+9-AC EDL muscle; 20 mM verapamil) of the same compound?
Answer: improve transient weakness

Question: And the transient weakness ([7]; 5 mM verapamil, in bath)?
Answer: improve transient weakness

Question: And the transient weakness ([7]; 20 um verapamil, in bath)?
Answer: significant and robust

Question: What does the source list for `COC(=O)C1=C(C)NC(C)=C(C(=O)OC)C1c1ccccc1[N+](=O)[O-]` [nifedipine, 3,5-dimethyl 2,6-dimethyl-4-(2-nitrophenyl)-1,4-dihydropyridine-3,5-dicarboxylate]?
Answer: myotonia (myotonic WT EDL; 75 nM nifedipine): reduced myotonia; myotonia (myotonic Cav1.1^Δe29 EDL; 75 nM nifedipine): reduction in the myotonia; initial drop in force generation between the first and second tetani ([7]; 10 mM nifedipine): improved; transient weakness ([7]; 10 mM nifedipine in the bath): significant improvement in transient weakness
